Measurements taken from paper PMC8307404, “Crystal Structure-Guided Design of Bisubstrate Inhibitors and Photoluminescent Probes for Protein Kinases of the PIM Family” (Molecules, 2021).
Several values for one entry are separate records, joined by “and”; a condition that tells them apart may be missing. Equal values may be shown once. Square brackets hold non-standard residues; d marks the D form. Peptide text beside a SMILES is read from it. * marks the point of attachment. X7 = Nc1nccc(-c2ccc(C(=O)*)s2)n1; Ahx = NCCCCCC(=O)O

Key:
PIM2 [1] = molecular target: T1, PIM2 (Homo sapiens, UniProt Q9P1W9); experiment: Thermal shift assay; type: binding; set-up: made in house; settings: 2 μM kinase, 12.5 μM compound; mean ± SEM, N = 2
T1 sequence (Q9P1W9 whole entry): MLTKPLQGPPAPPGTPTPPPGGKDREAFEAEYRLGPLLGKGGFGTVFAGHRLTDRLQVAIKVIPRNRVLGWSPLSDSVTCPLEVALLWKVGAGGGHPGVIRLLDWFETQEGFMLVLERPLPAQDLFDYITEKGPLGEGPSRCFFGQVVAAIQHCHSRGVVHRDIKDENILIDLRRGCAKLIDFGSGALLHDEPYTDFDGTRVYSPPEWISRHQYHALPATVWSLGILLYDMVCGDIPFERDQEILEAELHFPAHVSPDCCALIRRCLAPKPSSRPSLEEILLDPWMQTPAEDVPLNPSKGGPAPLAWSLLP
Method: (§1) Thermal shift assay measurements were performed following the previously published protocol [61] using a real-time PCR instrument (Mx3005p RT-PCR, Stratagene; La Jolla, California). […] The measurements were carried out in PCR low-profile microplate wells (ABgene; Portsmouth, NH, USA). The temperature scan was run from 25 to 95 °C at 1 °C/min. GraphPad Prism v. 6.0 (GraphPad Software, Inc.; San Diego, CA, USA) and Microsoft Excel v. 2007 (Microsoft Office; Redmond, WA, USA) were used for data processing and analysis.

PIM1 [2] = molecular target: T2, PIM1 (Homo sapiens, UniProt P11309); experiment: Thermal shift assay; type: binding; set-up: made in house; settings: 2 μM kinase, 12.5 μM compound; mean ± SEM, N = 2
T2 sequence (P11309 whole entry): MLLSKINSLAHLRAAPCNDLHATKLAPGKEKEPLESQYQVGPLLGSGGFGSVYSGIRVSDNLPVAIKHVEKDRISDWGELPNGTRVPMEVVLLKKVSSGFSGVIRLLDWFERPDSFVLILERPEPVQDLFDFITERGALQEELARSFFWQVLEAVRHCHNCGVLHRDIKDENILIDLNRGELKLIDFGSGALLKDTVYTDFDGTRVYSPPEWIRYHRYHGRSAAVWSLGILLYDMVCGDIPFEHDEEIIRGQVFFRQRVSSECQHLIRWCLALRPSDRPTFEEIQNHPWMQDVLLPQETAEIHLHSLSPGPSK
Method: as §1

PIM3 [3] = molecular target: T3, PIM3 (Homo sapiens, UniProt Q86V86); experiment: Thermal shift assay; type: binding; set-up: made in house; settings: 2 μM kinase, 12.5 μM compound; mean ± SEM, N = 2
Method: as §1

PKAcα = molecular target: T4, PKAcα (Homo sapiens, UniProt P17612); experiment: Binding/displacement assay with FA or TGLI readout; settings: TGLI or FA readout; mean ± SEM, N = 2; read-out: KD, nM (PKAcα)
T4 construct: purchased Biaffin GmbH & Co KG (Kassel, Germany)
Method: The affinities of the compounds toward the PIM family PKs were determined in a binding/displacement assay with measurement of fluorescence anisotropy (FA) and time-gated luminescence intensity (TGLI) (Table 2). For the initial assessment of the selectivity of compounds, PKAcα was used as the reference basophilic kinase.
Optical FA measurement modules for 5-TAMRA-labeled compounds (ex. 540(20) nm, em. 590(20) nm and 590(20) nm), for Cy5-labeled compounds (ex. 590(50) nm, em. 675(50) nm and 675(50) nm), and optical TGLI measurement modules for ARC-1451 (ex. 330(60) nm, em. 590(50) nm), for ARC-1188 (ex. 330(60) nm, em. 675(50) nm) were used for assays with PHERAstar microplate reader (BMG Labtech; Ortenberg, Germany). TGLI measurements were performed with a delay time of 50 μs and integration of the signal for 150 μs. In each measurement, emission from 200 flashes of excitation radiation was collected. The measurement solutions (20 µL volumes) were prepared in black 384-well low-binding surface microtiter plates (Corning #4514; Kennebunk, ME, USA) and incubated for 20 min at 30 °C before the measurements. The assay buffer contained HEPES hemisodium salt (pH 7.4, 50 mM), NaCl (150 mM), dithiothreitol (5 mM), bovine serum albumin (0.5 mg/mL), and Tween-20 (0.005%). GraphPad Prism v. 5.04 (GraphPad Software, Inc.) was used for data analysis with FA [32] or TGLI [33] readouts. Representative titration curves can be found in Supplementary Figure S7.

PIM3 [4] = molecular target: T3, PIM3; experiment: Binding/displacement assay with FA or TGLI readout; set-up: made in house; settings: mean ± SEM, N = 2
Method: (§2) The affinities of the compounds toward the PIM family PKs were determined in a binding/displacement assay with measurement of fluorescence anisotropy (FA) and time-gated luminescence intensity (TGLI) (Table 2). For the initial assessment of the selectivity of compounds, PKAcα was used as the reference basophilic kinase [10].
(§3) Optical FA measurement modules for 5-TAMRA-labeled compounds (ex. 540(20) nm, em. 590(20) nm and 590(20) nm), for Cy5-labeled compounds (ex. 590(50) nm, em. 675(50) nm and 675(50) nm), and optical TGLI measurement modules for ARC-1451 (ex. 330(60) nm, em. 590(50) nm), for ARC-1188 (ex. 330(60) nm, em. 675(50) nm) were used for assays with PHERAstar microplate reader (BMG Labtech; Ortenberg, Germany). TGLI measurements were performed with a delay time of 50 μs and integration of the signal for 150 μs. In each measurement, emission from 200 flashes of excitation radiation was collected. The measurement solutions (20 µL volumes) were prepared in black 384-well low-binding surface microtiter plates (Corning #4514; Kennebunk, ME, USA) and incubated for 20 min at 30 °C before the measurements. The assay buffer contained HEPES hemisodium salt (pH 7.4, 50 mM), NaCl (150 mM), dithiothreitol (5 mM), bovine serum albumin (0.5 mg/mL), and Tween-20 (0.005%). […] 5.04 (GraphPad Software, Inc.) was used for data analysis with FA [32] or TGLI [33] readouts.

PIM2 [5] = molecular target: T1, PIM2; experiment: Binding/displacement assay with FA or TGLI readout; set-up: made in house; settings: mean ± SEM, N = 2
Method: as §2, §3

PIM1 [6] = molecular target: T2, PIM1; experiment: Binding/displacement assay with FA or TGLI readout; set-up: made in house
Method: as §2, §3

PIM-1-TagRFP = molecular target: T5, PIM-1-TagRFP (Homo sapiens, UniProt P11309); experiment: Co-localization study, TIRF microscopy; type: cell-based; settings: live U2OS cells, 48 h transfection, 1 h incubation with 2.5 or 5 μM probe
T5 construct: expressed in transfected cells; host or cells: U2OS (human osteosarcoma), transient, 48 h, FuGENE HD
T5 sequence (P11309 whole entry): as the sequence (P11309 whole entry) above

U2OS cells = experiment: Cellular uptake of fluorescent probes, live-cell microscopy; type: cell-based, human; settings: 1–5 μM, 10–60 min
Method: For studies of the general internalization properties of ARCs, the cells were seeded at the density of 12,000–25,000 cells per well onto an Ibidi μ-plate (96-well; Ibidi GmbH, Planegg, Germany). After 24 h incubation in growth medium, the cells were treated for 10 min, 30 min, or 1 h with dilutions of compounds 6, 7, 8, or ARC-2090 (5 μM, 2.5 μM, or 1 μM final concentration) in the phenol red-free DMEM/Ham’s F12 medium supplemented with 2% ccFBS and 2 mM glutamine. Next, cells were washed twice with PBS, and imaging medium (MEMO + Supplement A 1:100) was applied subsequently. Cells were imaged with Cytation 5 wide-field microscope (BioTek; Winooski, VT, USA) using 20× air objective and the following settings: for Cy5, 623 nm LED (intensity: 2) and Cy5 filter cube (685 nm) with 104 ms integration time and detector gain value of 2; for TAMRA, 523 nm LED (intensity: 7) and RFP filter cube (593 nm) with 252 ms integration time and detector gain value of 16; for bright-field, white LED with intensity 6, 186 ms integration time and detector gain value of 15. Four independent experiments were performed.

endoprotease furin = molecular target: endoprotease furin; set-up: method as in PMID 26110264; settings: cited from earlier work
[7] = KD, nM (PIM-1), TGLI or FA readout, mean ± SEM, N = 2

In the case of `C[C@@H](NC(=O)CCCCCNC(=O)c1ccc(-c2ccnc(N)n2)s1)C(=O)N[C@H](CCCNC(=N)N)C(=O)N[C@H](CCCNC(=N)N)C(=O)N[C@H](CCCNC(=N)N)C(=O)N[C@H](CCCNC(=N)N)C(=O)N[C@H](CCCNC(=N)N)C(=O)N[C@H](CCCNC(=N)N)C(=O)N[C@H](CCCCN)C(=O)NCC(=O)O` [ARC-1141, AMTH-Ahx-D-Ala-(D-Arg)6-D-Lys-Gly] ({X7-Ahx}-[dA][dR][dR][dR][dR][dR][dR][dK]G-OH), the “∆Tm, °C PIM-2” value (PIM2 [1]) is reported as 5.9 ± 0.6 °C, the “∆Tm, °C PIM-1” value (PIM1 [2]) is reported as 5.2 ± 0.4 °C and the “∆Tm, °C PIM-3” value (PIM3 [3]) is reported as 4.9 ± 0.4 °C.
`N[C@@H]1CCCN(c2c(/C=C3\SC(=O)NC3=O)cccc2-c2ccccc2)C1` [AZD1208, reference compound] gave a Kd (PKAcα) of over 83000 nM.
Work on `N=C(N)NCCC[C@@H](NC(=O)CNC(=O)[C@@H](CCCNC(=N)N)NC(=O)[C@@H](CCCNC(=N)N)NC(=O)CCCCc1cn(Cc2nc3c(sc4ccc(Br)cc43)c(=O)[nH]2)nn1)C(=O)N[C@H](CCCCN)C(N)=O` [Compound 4, BBTP-Tap-(D-Arg)2-Gly-D-Arg-D-Lys-NH2] yielded a Kd (PKAcα) of over 18200 nM, a Kd (PIM3 [4]) of 6.6 ± 1.4 nM and a Kd (PIM2 [5]) of 20 ± 4 nM. For the same molecule, the Kd (PIM1 [6]; [7]) was 1.8 ± 0.3 nM and the “fold higher selectivity as compared to compound 3” value (PIM1 [6]; PIM-1 vs PKAcα) was “over 5 fold”.
With `N=C(N)NCCC[C@@H](NC(=O)CNC(=O)[C@@H](CCCNC(=N)N)NC(=O)[C@@H](CCCNC(=N)N)NC(=O)CCCCCCCNC(=O)[C@@H]1C[C@@H](O)CN1Cc1nc2c(sc3ccc(Br)cc32)c(=O)[nH]1)C(=O)N[C@H](CCCCN)C(N)=O` [Compound 5, BBTP-Hyp-Aoc-(D-Arg)2-Gly-D-Arg-D-Lys-NH2] the Kd (PKAcα) was over 20600 nM, the Kd (PIM3 [4]) was 30.4 ± 6.5 nM and the Kd (PIM2 [5]) was 447 ± 52 nM. For the same molecule, the Kd (PIM1 [6]; [7]) was 37.8 ± 9 nM and the “fold lower selectivity toward PIM-1 than compound 2” value (PIM1 [6]; PIM-1 vs PKAcα) was “over 4 fold”.
For `CN1C(=CC=CC=CC2=[N+](CCCCCC(=O)NCCCC[C@@H](NC(=O)[C@@H](CCCNC(=N)N)NC(=O)CNC(=O)[C@@H](CCCNC(=N)N)NC(=O)[C@@H](CCCNC(=N)N)NC(=O)CCCCCCCNCc3nc4c(sc5ccc(Br)cc54)c(=O)[nH]3)C(N)=O)c3ccccc3C2(C)C)C(C)(C)c2ccccc21` [Compound 6, BBTP-Aoc-(D-Arg)2-Gly-D-Arg-[D-Lys(Cy5)]-NH2], the Kd (PKAcα) was over 303 nM, the Kd (PIM3 [4]) was 2.6 ± 0.3 nM and the “Manders' coefficient, co-localization with PIM-1-TagRFP” value (PIM-1-TagRFP) was 0.72 ± 0.06. For the same molecule, the “ability to cross the plasma membrane / internalization” value (U2OS cells) was “efficiently internalized into the cells”, the Kd (PIM2 [5]) was 5.2 ± 0.9 nM and the Kd (PIM1 [6]; [7]) was 1.7 ± 0.4 nM.
With `CN1C(=CC=CC=CC2=[N+](CCCCCC(=O)NCCCC[C@@H](NC(=O)[C@@H](CCCNC(=N)N)NC(=O)CNC(=O)[C@@H](CCCNC(=N)N)NC(=O)[C@@H](CCCNC(=N)N)NC(=O)CCCCc3cn(Cc4nc5c(sc6ccc(Br)cc65)c(=O)[nH]4)nn3)C(N)=O)c3ccccc3C2(C)C)C(C)(C)c2ccccc21` [Compound 7, BBTP-Tap-(D-Arg)2-Gly-D-Arg-[D-Lys(Cy5)]-NH2] the Kd (PKAcα) was over 1080 nM, the Kd (PIM3 [4]) was 8.3 ± 1 nM and the “Manders' coefficient, co-localization with PIM-1-TagRFP” value (PIM-1-TagRFP) was 0.43 ± 0.16. The “ability to cross the plasma membrane / internalization” value (U2OS cells) was “efficiently internalized into the cells”, the Kd (PIM2 [5]) was 28.2 ± 6.7 nM and the Kd (PIM1 [6]; [7]) was 21.9 ± 4 nM.
`N=C(N)NCCC[C@@H](N)C(=O)N[C@H](CCCNC(=N)N)C(=O)NCC(=O)N[C@H](CCCNC(=N)N)C(=O)N[C@H](CCCCN)C(N)=O` [PIM peptide, (D-Arg)2-Gly-D-Arg-D-Lys-NH2] gave a Kd (PKAcα) of over 89000 nM, a Kd (PIM3 [4]) of over 16400 nM and a Kd (PIM2 [5]) of over 46000 nM. It also gave a Kd (PIM1 [6]; KD toward PIM-1, as worded in text) of over 10000 nM and a Kd (PIM1 [6]; [7]) of over 11500 nM.
In the case of `CN1CCC(CNc2ccc3ncc(-c4cccc(OC(F)(F)F)c4)n3n2)CC1` [SGI-1776, reference compound], the “∆Tm, °C PIM-2” value (PIM2 [1]) is reported as 8.1 ± 0.6 °C, the “∆Tm, °C PIM-1” value (PIM1 [2]) is reported as 9.5 °C and 9.5 ± 0.4 °C and the “∆Tm, °C PIM-3” value (PIM3 [3]) is reported as 8.2 ± 0.3 °C.
For (D-Arg)6-NH2, the Kd (endoprotease furin) is given as 106 nM.
For (D-Arg)9-NH2, the Kd (endoprotease furin) is listed as 1.3 nM.
In the case of “BBTP-Hyp-Ahx-(D-Arg)9-D-Lys-NH2 [ARC-3119]”, the “∆Tm, °C PIM-2” value (PIM2 [1]) is reported as 13.9 ± 0.6 °C, the “∆Tm, °C PIM-1” value (PIM1 [2]) is reported as 13.7 ± 0.4 °C and the “∆Tm, °C PIM-3” value (PIM3 [3]) is reported as 11.9 ± 0.2 °C.
